This is an account of results in ChEMBL document CHEMBL5126615, “Identification of RAD51-BRCA2 Inhibitors Using N-Acylhydrazone-Based Dynamic Combinatorial Chemistry” (ACS Med Chem Lett, 2022).

Activity calls are given as the source filed them. No cut-off for these calls is given here.

Tested on in one assay: not listed separately
Briefly: Inhibition of recombinant human His-tagged RAD51 expressed in Escherichia coli Rosetta2(DE3)pLysS cells/BRCA2 (unknown origin) by ELISA. On the technique in general: ELISA stands for enzyme-linked immunosorbent assay.
One may read the EC50 as the concentration needed to bring the measured effect to its halfway point. As to `COc1ccc(/C=N/NC(=O)CCCOc2ccc(Cl)cc2Cl)cn1`, the EC50 was 110 µM.
For `O=C(CCCOc1ccc(Cl)cc1Cl)N/N=C/c1cccnc1F`, the EC50 worked out at 19 µM.
On the same count and under the same terms, under `O=C(CCCOc1ccc(Cl)cc1Cl)N/N=C/c1ccc(C(F)(F)F)nc1` stands 18 µM.
Same read-out and setting: with `CN(C)c1ccc(/C=N/NC(=O)[C@H](Cc2ccccc2)NC(=O)OC(C)(C)C)cc1` the figure was 70 µM.
In the case of `COc1cccc(/C=N/NC(=O)CCCOc2ccc(Cl)cc2Cl)c1`, the EC50 worked out at 60 µM.
Still for that read-out and setting: with `O=C(CCCOc1ccc(Cl)cc1Cl)N/N=C/c1ccc2nccnc2c1` the figure was 35 µM; with `O=C(CCCOc1ccc(Cl)cc1Cl)N/N=C/c1cc2c(s1)CCCC2`, 86 µM.
On the same count and under the same terms, with `O=C(CCCOc1ccc(Cl)cc1Cl)N/N=C/c1cccc(C(F)(F)F)c1` the figure was 19 µM; with `Cc1cccc(Cn2nc(C(C)(C)C)cc2C(=O)N/N=C/c2ccc(N(C)C)cc2)c1`, 130 µM.
On to `O=C(CCCOc1ccc(Cl)cc1Cl)N/N=C/c1ccc2cc[nH]c2c1`, for which the EC50 turned out to be 50 µM.

The target in another assay is T1, DNA repair protein RAD51 homolog 1 (Homo sapiens) (UniProt Q06609).
T1 sequence (whole entry): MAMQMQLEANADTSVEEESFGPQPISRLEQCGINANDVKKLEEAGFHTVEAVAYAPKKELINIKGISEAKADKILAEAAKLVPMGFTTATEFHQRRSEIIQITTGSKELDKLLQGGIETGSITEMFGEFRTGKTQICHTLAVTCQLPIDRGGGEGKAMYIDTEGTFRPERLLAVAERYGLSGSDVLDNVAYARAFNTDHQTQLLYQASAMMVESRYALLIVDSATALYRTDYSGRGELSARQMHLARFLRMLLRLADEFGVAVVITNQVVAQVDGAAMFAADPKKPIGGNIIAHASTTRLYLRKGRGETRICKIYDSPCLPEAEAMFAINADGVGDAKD
The experiment in a line: Binding affinity to recombinant human His-tagged RAD51 expressed in Escherichia coli Rosetta2(DE3)pLysS cells by 19F-NMR assay.
In the case of `O=C(CCCOc1ccc(Cl)cc1Cl)N/N=C/c1cccnc1F`, the outcome was Active.
